From PMC10756276, “Highly specific σ2R/TMEM97 ligand FEM-1689 alleviates neuropathic pain and inhibits the integrated stress response” (Proceedings of the National Academy of Sciences of the …, 2023)
Entries after “also recorded” stand apart in the source; their conditions may differ.

Key:
[1] = Pharmacokinetic parameters after IP dosing (Fig. 2); assay type: in vivo
[2] = tested on: mouse DRG neurons; assay: Neurite outgrowth, Sholl analysis; assay type: cell-based; settings: 100 nM, wild-type neurons
Method: Sholl analysis was performed using the Neuroanatomy plugin in ImageJ according to the authors’ recommendations ([77]). Only solitary cells were used for analysis. The area under the curve was calculated using GraphPad Prism. More details are available in SI Appendix. […]
gently layered onto 3 mL of 10% bovine serum albumin (BSA, BioPharm #71- 040-002) in HBSS in a 15 ml falcon tube. T his BSA gradient containing the cells was centrifuged at 900g for 5 min at room temperatur e.
The pellet containing the cells was resuspended in Br ainPhys media (STEMCell #05790) containing 2% […]
1% Gluta Max (Gibco # 350 5 0061). Hu man DRG ne uron s were plated a nd grown o n glass coverslips coate d with po ly-D-lysine (Sigma #P7405). C ultured D RG neurons were plated for 24 hours before being treated.
Methylglyoxal (Sigma- Aldrich #M0252) and F EM- 1689 were serially diluted in media.
Mouse samples - DRG cultures […]
anesthesia and decapitated. […]
section above with minor differences.
Mouse DRG neurons were grown in
SAS-0132 and DKR-1677 were […]
dissolved in 100% DMSO to a final concentr ation of 200mM and stored at - 20 °C. and DKR-1677 were serially diluted in media. […]
Cultured mouse DRG neur ons from wild- type and TMEM97KO animals were treated w ith either vehicle or FEM-1689 (100 nM). […] The area under the curve was calculated using Graph Pad […]

[3] = tested on: MGO-induced mechanical hypersensitivity, wild-type mice; assay: Methylglyoxal-induced mechanical hypersensitivity; assay type: in vivo, mouse; settings: MGO 20 ng intraplantar; FEM-1689 20 mg/kg IV or ISRIB 2.5 mg/kg IP 24 h after MGO
[4] = target: D3 (Homo sapiens, UniProt P35462); assay: PDSP competitive binding assay; settings: 10 µM test article; read-out: Ki: primary assay inhibition of radioligand binding, D3
Chain of D3 (P35462 whole entry): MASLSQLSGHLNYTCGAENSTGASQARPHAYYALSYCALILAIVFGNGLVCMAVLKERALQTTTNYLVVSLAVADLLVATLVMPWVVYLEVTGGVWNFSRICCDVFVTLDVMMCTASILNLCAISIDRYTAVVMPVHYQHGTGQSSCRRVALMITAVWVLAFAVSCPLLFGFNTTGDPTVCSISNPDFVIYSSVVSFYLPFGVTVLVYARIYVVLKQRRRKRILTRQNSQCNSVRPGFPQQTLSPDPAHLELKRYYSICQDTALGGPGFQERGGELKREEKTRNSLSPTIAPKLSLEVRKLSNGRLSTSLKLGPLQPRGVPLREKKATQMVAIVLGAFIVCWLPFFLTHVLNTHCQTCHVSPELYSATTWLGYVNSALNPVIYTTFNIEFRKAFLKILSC

OCCCN1CC[C@@H]2C[C@H]1c1cc(-c3ccc(C(F)(F)F)cc3)ccc12 [FEM-1689]
brain to plasma ratio (AUClast) ([1]; IP): 20.5
Cmax (IP) ([1]; brain, IP): 10916 ng/mL
t1/2 (IP) ([1]; brain, IP): 11.4 h
brain entry ([1]; pharmacokinetic experiments, Fig. 2): readily enters the brain
Cmax (IP) ([1]; plasma, IP): 508 ng/mL
t1/2 (IP) ([1]; plasma, IP): 21.7 h
neurite outgrowth (Sholl analysis) [2]: increase in the number and complexity of neurites in wild-type neurons; also recorded: promoted neurite outgrowth in wild-type neurons
MGO-induced mechanical hypersensitivity [3]: completely reversed MGO-induced mechanical hypersensitivity; also recorded: alleviated mechanical hypersensitivity for the duration of the pain state
inhibition at 10 µM [4]: < 50%
